According to the supplement of paper PMC13386468:

How the values were obtained:
Assay in all cases: IC50 for competition of protein binding to Kinobeads
Conditions in all cases: assay detail: Kinobeads competition in P. falciparum blood-stage lysate
UniProt Q8II71 = molecular target: UniProt Q8II71
UniProt Q8ILT0 = molecular target: UniProt Q8ILT0
UniProt Q8I2H3 = molecular target: UniProt Q8I2H3
UniProt Q8IKF0 = molecular target: UniProt Q8IKF0
UniProt O77306 = molecular target: UniProt O77306
UniProt Q8IAU0 = molecular target: UniProt Q8IAU0
UniProt Q8IJW0 = molecular target: UniProt Q8IJW0
UniProt C6KSQ1 = molecular target: UniProt C6KSQ1
UniProt Q8I1N8 = molecular target: UniProt Q8I1N8
Q8ICR0 = Q8ICR0 (UniProt O15865)
Chain of Q8ICR0 (O15865 whole entry, one chain of several): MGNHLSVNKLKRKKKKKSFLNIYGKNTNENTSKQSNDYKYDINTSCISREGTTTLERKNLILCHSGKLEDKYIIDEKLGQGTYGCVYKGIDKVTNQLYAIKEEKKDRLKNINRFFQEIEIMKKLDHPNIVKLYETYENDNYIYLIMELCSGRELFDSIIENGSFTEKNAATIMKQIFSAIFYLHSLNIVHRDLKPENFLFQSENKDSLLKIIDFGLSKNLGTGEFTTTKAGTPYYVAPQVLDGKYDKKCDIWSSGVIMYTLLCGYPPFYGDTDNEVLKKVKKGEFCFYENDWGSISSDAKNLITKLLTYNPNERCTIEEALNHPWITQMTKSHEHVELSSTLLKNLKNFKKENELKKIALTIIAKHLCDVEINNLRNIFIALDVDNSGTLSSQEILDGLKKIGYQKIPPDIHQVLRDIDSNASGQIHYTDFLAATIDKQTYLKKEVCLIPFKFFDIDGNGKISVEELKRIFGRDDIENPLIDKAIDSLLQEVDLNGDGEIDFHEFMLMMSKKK

UniProt Q8I4V7 = molecular target: UniProt Q8I4V7
UniProt Q8I5R7 = molecular target: UniProt Q8I5R7
Chain of UniProt Q8I5R7 (Q8I5R7 whole entry): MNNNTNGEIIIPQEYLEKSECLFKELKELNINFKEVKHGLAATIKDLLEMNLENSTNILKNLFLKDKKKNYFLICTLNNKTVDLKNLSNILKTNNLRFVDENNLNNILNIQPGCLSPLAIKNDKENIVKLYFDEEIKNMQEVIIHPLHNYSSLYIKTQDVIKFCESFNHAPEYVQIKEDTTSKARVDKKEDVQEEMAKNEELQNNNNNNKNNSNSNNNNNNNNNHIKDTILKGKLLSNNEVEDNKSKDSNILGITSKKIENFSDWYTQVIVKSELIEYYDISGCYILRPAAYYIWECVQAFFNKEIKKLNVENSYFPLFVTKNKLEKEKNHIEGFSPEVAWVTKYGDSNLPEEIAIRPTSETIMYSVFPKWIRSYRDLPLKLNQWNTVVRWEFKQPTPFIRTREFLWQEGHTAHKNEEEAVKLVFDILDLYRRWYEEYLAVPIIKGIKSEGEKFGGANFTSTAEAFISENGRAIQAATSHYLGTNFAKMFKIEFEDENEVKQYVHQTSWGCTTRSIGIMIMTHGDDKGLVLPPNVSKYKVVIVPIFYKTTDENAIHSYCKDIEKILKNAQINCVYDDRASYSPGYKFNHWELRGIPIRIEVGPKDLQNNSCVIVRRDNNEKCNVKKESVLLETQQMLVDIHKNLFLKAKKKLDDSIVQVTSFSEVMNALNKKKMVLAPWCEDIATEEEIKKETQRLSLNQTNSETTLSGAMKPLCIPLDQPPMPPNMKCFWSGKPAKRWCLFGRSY

UniProt Q8II79 = molecular target: UniProt Q8II79
UniProt C6KSR5 = molecular target: UniProt C6KSR5
UniProt Q8I298 = molecular target: UniProt Q8I298
UniProt C0H529 = molecular target: UniProt C0H529
UniProt Q8IIW2 = molecular target: UniProt Q8IIW2
UniProt C6KT03 = molecular target: UniProt C6KT03
UniProt Q8I3T9 = molecular target: UniProt Q8I3T9
UniProt C6KSV3 = molecular target: UniProt C6KSV3
UniProt Q8ILX1 = molecular target: UniProt Q8ILX1
UniProt Q8II36 = molecular target: UniProt Q8II36
Chain of UniProt Q8II36 (Q8II36 whole entry): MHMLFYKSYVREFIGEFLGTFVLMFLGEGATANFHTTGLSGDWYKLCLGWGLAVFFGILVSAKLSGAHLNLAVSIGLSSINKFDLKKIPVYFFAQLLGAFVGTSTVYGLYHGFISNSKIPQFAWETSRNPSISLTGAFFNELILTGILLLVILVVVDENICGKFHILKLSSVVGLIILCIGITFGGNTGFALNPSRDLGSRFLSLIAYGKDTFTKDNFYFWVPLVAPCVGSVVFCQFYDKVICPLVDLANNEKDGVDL

UniProt Q8I616 = molecular target: UniProt Q8I616
UniProt Q8I6S4 = molecular target: UniProt Q8I6S4
UniProt C0H4V4 = molecular target: UniProt C0H4V4
UniProt Q8ILI2 = molecular target: UniProt Q8ILI2
UniProt Q8IM16 = molecular target: UniProt Q8IM16
Chain of UniProt Q8IM16 (Q8IM16 whole entry): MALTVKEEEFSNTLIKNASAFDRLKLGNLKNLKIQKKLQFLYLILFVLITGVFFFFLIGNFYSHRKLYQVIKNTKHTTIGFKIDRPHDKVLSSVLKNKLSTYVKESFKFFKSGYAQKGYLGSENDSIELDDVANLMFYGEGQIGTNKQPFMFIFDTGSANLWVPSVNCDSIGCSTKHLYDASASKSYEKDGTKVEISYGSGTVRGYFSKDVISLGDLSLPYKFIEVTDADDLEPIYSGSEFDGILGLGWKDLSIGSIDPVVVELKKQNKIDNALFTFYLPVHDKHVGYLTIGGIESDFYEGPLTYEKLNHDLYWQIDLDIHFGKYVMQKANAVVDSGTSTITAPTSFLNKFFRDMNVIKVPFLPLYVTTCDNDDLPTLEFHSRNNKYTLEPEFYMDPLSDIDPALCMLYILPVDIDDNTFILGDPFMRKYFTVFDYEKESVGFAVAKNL

UniProt Q8IJD0 = molecular target: UniProt Q8IJD0
UniProt Q8ILP3 = molecular target: UniProt Q8ILP3
Chain of UniProt Q8ILP3 (Q8ILP3 whole entry): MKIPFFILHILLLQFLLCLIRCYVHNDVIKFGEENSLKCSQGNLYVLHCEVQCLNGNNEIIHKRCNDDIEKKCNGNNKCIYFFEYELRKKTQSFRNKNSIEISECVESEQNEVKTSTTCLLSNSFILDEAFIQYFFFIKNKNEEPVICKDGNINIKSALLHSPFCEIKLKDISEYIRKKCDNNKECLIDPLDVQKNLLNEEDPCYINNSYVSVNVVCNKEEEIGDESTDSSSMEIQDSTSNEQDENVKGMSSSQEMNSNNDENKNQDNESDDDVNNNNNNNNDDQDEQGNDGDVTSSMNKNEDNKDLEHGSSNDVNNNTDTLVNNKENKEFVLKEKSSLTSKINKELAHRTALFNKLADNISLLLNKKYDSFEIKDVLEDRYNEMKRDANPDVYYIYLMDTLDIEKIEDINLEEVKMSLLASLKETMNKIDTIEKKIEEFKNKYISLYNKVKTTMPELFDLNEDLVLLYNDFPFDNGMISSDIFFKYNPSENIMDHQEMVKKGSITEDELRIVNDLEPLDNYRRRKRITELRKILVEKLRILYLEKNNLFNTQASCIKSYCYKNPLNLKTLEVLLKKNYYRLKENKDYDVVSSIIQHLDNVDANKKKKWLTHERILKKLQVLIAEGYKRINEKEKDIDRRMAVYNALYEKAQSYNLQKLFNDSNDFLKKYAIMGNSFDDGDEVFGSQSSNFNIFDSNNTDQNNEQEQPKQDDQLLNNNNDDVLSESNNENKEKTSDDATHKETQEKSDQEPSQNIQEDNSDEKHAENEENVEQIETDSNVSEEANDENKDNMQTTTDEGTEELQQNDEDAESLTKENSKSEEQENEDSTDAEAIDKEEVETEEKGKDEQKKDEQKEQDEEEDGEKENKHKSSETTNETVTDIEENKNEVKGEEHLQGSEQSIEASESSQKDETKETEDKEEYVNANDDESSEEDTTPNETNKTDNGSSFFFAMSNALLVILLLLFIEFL

UniProt Q8ID50 = molecular target: UniProt Q8ID50
UniProt C0H5A0 = molecular target: UniProt C0H5A0
UniProt Q8IIH4 = molecular target: UniProt Q8IIH4
UniProt Q8IL56 = molecular target: UniProt Q8IL56
UniProt Q8IEN3 = molecular target: UniProt Q8IEN3
UniProt Q8IJC7 = molecular target: UniProt Q8IJC7
UniProt Q8I5C5 = molecular target: UniProt Q8I5C5
UniProt Q8IFM9 = molecular target: UniProt Q8IFM9
UniProt Q8IDG9 = molecular target: UniProt Q8IDG9
UniProt C6KST5 = molecular target: UniProt C6KST5
UniProt C0H516 = molecular target: UniProt C0H516
UniProt Q8I2R0 = molecular target: UniProt Q8I2R0
UniProt Q8II27 = molecular target: UniProt Q8II27
UniProt Q8IB78 = molecular target: UniProt Q8IB78
UniProt Q8IC35 = molecular target: UniProt Q8IC35
UniProt Q8I3L4 = molecular target: UniProt Q8I3L4
UniProt C0H4K8 = molecular target: UniProt C0H4K8
UniProt Q8IAR3 = molecular target: UniProt Q8IAR3
UniProt Q8I534 = molecular target: UniProt Q8I534
UniProt Q8II61 = molecular target: UniProt Q8II61
UniProt O97313 = molecular target: UniProt O97313
Chain of UniProt O97313 (O97313 whole entry): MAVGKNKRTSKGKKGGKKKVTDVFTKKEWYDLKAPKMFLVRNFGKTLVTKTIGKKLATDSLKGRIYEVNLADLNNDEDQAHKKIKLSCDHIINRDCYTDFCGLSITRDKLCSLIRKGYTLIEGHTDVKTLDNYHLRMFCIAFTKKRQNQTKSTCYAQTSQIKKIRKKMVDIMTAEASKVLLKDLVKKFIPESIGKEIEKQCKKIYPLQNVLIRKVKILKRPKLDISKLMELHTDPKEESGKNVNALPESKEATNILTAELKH

UniProt Q8IJZ3 = molecular target: UniProt Q8IJZ3

Measured: IC50
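Also: native unpurified kinases from lysate captured on beads bearing immobilized kinase inhibitors, with bead-bound kinases quantified by mass spectrometry across compound doses.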

O=c1[nH]c2ccc(Cl)cc2c(NC2CN3CCC2CC3)c1-c1nc2ccccc2[nH]1 (stereo unspecified) [CHIR-124]
0.299 µM: UniProt C6KSQ1
> 20 µM: all other assays above
